Laboratory results taken from BindingDB's records for doi:10.1021/acs.jmedchem.7b00076 (University of Chinese Academy of Sciences, 2017).

Key:
[1] = Inhibition of FGFR1 in human NCI-H1581 cells assessed as inhibition of cell proliferation after 72 hrs by cell counting kit-8 assay
[2] = Inhibition of FGFR1OP2 fused FGFR1 in human KG1 cells assessed as inhibition of cell proliferation after 72 hrs by cell counting kit-8 assay
[3] = Inhibition of TEL-fused KDR (unknown origin) expressed in mouse Ba/F3 cells assessed as inhibition of cell proliferation after 72 hrs by cell counting kit-8 assay
[4] = Inhibition of CCDC6-fused RET (unknown origin) expressed in mouse Ba/F3 cells assessed as inhibition of cell proliferation after 72 hrs by cell counting kit-8 assay

For `Cc1n[nH]c2ccc(-c3cc(N[C@@H](CO)c4ccccc4)cnc3-c3cc(F)ccc3O)cc12`, the IC50 [1] was 0.391 µM, the IC50 [2] was 0.015 µM and the IC50 [3] was 0.0098 µM. The IC50 [4] was 0.316 µM.
